Test results taken from the supplement of paper PMC11208160.

test: recombinant UMI read abundance after kanamycin selection (control-corrected) (log10(CPM+1)); higher = more efficient recombination; extreme values may be limits of the assay; sequences stand for … in AGTGCAGAGAAAATCGGCCAGTTTTCTCTGCCTGCAGTCCGCATGCCGTGGGACCCCTTGGGTTCTAACCTGTTGCCTAGATTTATGCAGCGGACTGCCTTTCTCCCAAAGTGATAAACCGG…AGGTTGGTTTCACT; site = the 11-nt donor
In short: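 In a pooled Escherichia coli screen for the IS621 bridge recombinase, donor and donor-binding-loop pairs were each placed with a 12-nt UMI on a plasmid bearing a promoterless kanamycin gene. This library was co-electroporated with a target plasmid encoding a fixed target and T7-inducible recombinase, and cells were plated either on IPTG (0.07 mM) plus kanamycin or without selection, in two replicates each. Recombinant UMIs were PCR-amplified across the donor–target junction and sequenced, and counts were converted to CPM, averaged over replicates, scaled by control-derived factors and reported as log10(CPM+1).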
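Note: IS621 bridge recombinase in Escherichia coli cells against a fixed T5 target plasmid.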

“GACAATCCATGGACCGGTTTTCCCGGTAATCCGTATTTGGT (site GACAACCCTAC)” and “GACAATCCATGGACCGGTTTTCCCGGTAATCCGTATTTGGT (site GACAAGCCTAC)” are within 0.2 log units of each other in “recombinant UMI read abundance (log10)” value: 0.00483 for the first, 0.0115 for the second.

“GACAATCCATGGACCGGTTTTCCCGGTAATCCGTATTTGGT (site GACAATCCTAC)” and “GACACGACATGGACCGGTTTTCCCGGTAATCCGTATTTGGG (site GACACGACTCC)” are within 0.2 log units of each other in “recombinant UMI read abundance (log10)” value: 0.0195 for the first, 0.173 for the second.

Compared with “GACAGGGCATGGACCGGTTTTCCCGGTAATCCGTATTTGAT (site GACAGGGCTAT)”, “GACATCCCATGGACCGGTTTTCCCGGTAATCCGTATTTGAA (site GACATCCCTTT)” is lower in “recombinant UMI read abundance (log10)” value: 1.89 for the first, 0.475 for the second.

“GACCAACCATGGACCGGTTTTCCCGGTAATCCGTATTTGGT (site GACAAACCTAC)” and “GACCAACCATGGACCGGTTTTCCCGGTAATCCGTATTTGGT (site GACCAACCTAC)” are within 0.2 log units of each other in “recombinant UMI read abundance (log10)” value: 0 for the first, 0.0426 for the second.

“GACCAACCATGGACCGGTTTTCCCGGTAATCCGTATTTGGT (site GACGAACCTAC)” and “GACCAACCATGGACCGGTTTTCCCGGTAATCCGTATTTGGT (site GACTAACCTAC)” are within 0.2 log units of each other in “recombinant UMI read abundance (log10)” value: 0 for the first, 0.00842 for the second.

First: GACCCATCATGGACCGGTTTTCCCGGTAATCCGTATTTGAG (site GACCCATCTCT)
Second: GACCGTCCATGGACCGGTTTTCCCGGTAATCCGTATTTGAG (site GACCGTCCTCT)
The “recombinant UMI read abundance (log10)” value of the first is higher: 2.43 for the first, 0.281 for the second.

“GACCTACCATGGACCGGTTTTCCCGGTAATCCGTATTTGTC (site GACCTACCTGA)” and “GACCTCACATGGACCGGTTTTCCCGGTAATCCGTATTTGGG (site GACCTCACTCC)” are within 0.2 log units of each other in “recombinant UMI read abundance (log10)” value: 0 for the first, 0.0144 for the second.

“GACCTTGCATGGACCGGTTTTCCCGGTAATCCGTATTTGCA (site GACCTTGCTTG)” and “GACGAACCATGGACCGGTTTTCCCGGTAATCCGTATTTGAG (site GACGAACCTCT)” are the same in “recombinant UMI read abundance (log10)” value: 0 for the first, 0 for the second.

“GACGAACCATGGACCGGTTTTCCCGGTAATCCGTATTTGGT (site GACAAACCTAC)” and “GACGAACCATGGACCGGTTTTCCCGGTAATCCGTATTTGGT (site GACCAACCTAC)” are within 0.2 log units of each other in “recombinant UMI read abundance (log10)” value: 0 for the first, 0.0777 for the second.

“GACGAACCATGGACCGGTTTTCCCGGTAATCCGTATTTGGT (site GACGAACCTAC)” and “GACGAACCATGGACCGGTTTTCCCGGTAATCCGTATTTGGT (site GACTAACCTAC)” are within 0.2 log units of each other in “recombinant UMI read abundance (log10)” value: 0 for the first, 0.0149 for the second.

Going from “GACGCAACATGGACCGGTTTTCCCGGTAATCCGTATTTGTA (site GACGCAACTTA)” to “GACGCCGCATGGACCGGTTTTCCCGGTAATCCGTATTTGGC (site GACGCCGCTGC)”, the “recombinant UMI read abundance (log10)” value rises from 1.34 to 2.91.

First: GACGTCTCATGGACCGGTTTTCCCGGTAATCCGTATTTGGA (site GACGTCTCTTC)
Second: GACTATACATGGACCGGTTTTCCCGGTAATCCGTATTTGGG (site GACTATACTCC)
The “recombinant UMI read abundance (log10)” value of the first is higher: 1.94 for the first, 0.588 for the second.

First: GACTCGACATGGACCGGTTTTCCCGGTAATCCGTATTTGCA (site GACTCGACTTG)
Second: GACTCTGCATGGACCGGTTTTCCCGGTAATCCGTATTTGCT (site GACTCTGCTAG)
The “recombinant UMI read abundance (log10)” value of the first is higher: 1.84 for the first, 1.3 for the second.

First: GACTGACCATGGACCGGTTTTCCCGGTAATCCGTATTTGGC (site GACTGACCTGC)
Second: GACTGAGCATGGACCGGTTTTCCCGGTAATCCGTATTTGTC (site GACTGAGCTGA)
The “recombinant UMI read abundance (log10)” value of the first is lower: 0 for the first, 2.29 for the second.

Going from “GACTGCACATGGACCGGTTTTCCCGGTAATCCGTATTTGGT (site GACTGCACTAC)” to “GACTTAGCATGGACCGGTTTTCCCGGTAATCCGTATTTGGT (site GACTTAGCTAC)”, the “recombinant UMI read abundance (log10)” value falls from 0.857 to 0.191.

“GAGAAACCATGGACCGGTTTTCCCGGTAATCCGTATTTGGT (site GAAAAACCTAC)” and “GAGAAACCATGGACCGGTTTTCCCGGTAATCCGTATTTGGT (site GACAAACCTAC)” are the same in “recombinant UMI read abundance (log10)” value: 0 for the first, 0 for the second.

“GAGAAACCATGGACCGGTTTTCCCGGTAATCCGTATTTGGT (site GAGAAACCTAC)” and “GAGAAACCATGGACCGGTTTTCCCGGTAATCCGTATTTGGT (site GATAAACCTAC)” are the same in “recombinant UMI read abundance (log10)” value: 0 for the first, 0 for the second.

“GAGAACCCATGGACCGGTTTTCCCGGTAATCCGTATTTGTC (site GAGAACCCTGA)” and “GAGAAGCCATGGACCGGTTTTCCCGGTAATCCGTATTTGAC (site GAGAAGCCTGT)” are the same in “recombinant UMI read abundance (log10)” value: 0 for the first, 0 for the second.

Compared with “GAGACAACATGGACCGGTTTTCCCGGTAATCCGTATTTGAA (site GAGACAACTTT)”, “GAGACGACATGGACCGGTTTTCCCGGTAATCCGTATTTGGG (site GAGACGACTCC)” is lower in “recombinant UMI read abundance (log10)” value: 0.852 for the first, 0.501 for the second.

Going from “GAGACGACATGGACCGGTTTTCCCGGTAATCCGTATTTGTC (site GAGACGACTGA)” to “GAGACTACATGGACCGGTTTTCCCGGTAATCCGTATTTGAA (site GAGACTACTTT)”, the “recombinant UMI read abundance (log10)” value falls from 1.94 to 0.551.

“GAGATAACATGGACCGGTTTTCCCGGTAATCCGTATTTGCG (site GAGATAACTCG)” and “GAGATCACATGGACCGGTTTTCCCGGTAATCCGTATTTGGT (site GAGATCACTAC)” are within 0.2 log units of each other in “recombinant UMI read abundance (log10)” value: 1.56 for the first, 1.37 for the second.

Compared with “GAGATGACATGGACCGGTTTTCCCGGTAATCCGTATTTGCA (site GAGATGACTTG)”, “GAGCAATCATGGACCGGTTTTCCCGGTAATCCGTATTTGTT (site GAGCAATCTAA)” is higher in “recombinant UMI read abundance (log10)” value: 2.52 for the first, 2.77 for the second.

Going from “GAGCATGCATGGACCGGTTTTCCCGGTAATCCGTATTTGGT (site GAGCATGCTAC)” to “GAGCATGCATGGACCGGTTTTCCCGGTAATCCGTATTTGGT (site GCGCATGCTAC)”, the “recombinant UMI read abundance (log10)” value falls from 1.5 to 0.474.

Going from “GAGCATGCATGGACCGGTTTTCCCGGTAATCCGTATTTGGT (site GGGCATGCTAC)” to “GAGCATGCATGGACCGGTTTTCCCGGTAATCCGTATTTGGT (site GTGCATGCTAC)”, the “recombinant UMI read abundance (log10)” value falls from 0.422 to 0.162.

“GAGCCGGCATGGACCGGTTTTCCCGGTAATCCGTATTTGGT (site GAGCCGGCTAC)” and “GAGCCTGCATGGACCGGTTTTCCCGGTAATCCGTATTTGGT (site GAGCCTGCTAC)” are within 0.2 log units of each other in “recombinant UMI read abundance (log10)” value: 0.57 for the first, 0.482 for the second.

First: GAGCGTTCATGGACCGGTTTTCCCGGTAATCCGTATTTGCG (site GAGCGTTCTCG)
Second: GAGCTAACATGGACCGGTTTTCCCGGTAATCCGTATTTGAT (site GAGCTAACTAT)
The “recombinant UMI read abundance (log10)” value of the first is lower: 1.82 for the first, 2.46 for the second.

“GAGCTAACATGGACCGGTTTTCCCGGTAATCCGTATTTGAT (site GAGCTCACTAT)” and “GAGCTAACATGGACCGGTTTTCCCGGTAATCCGTATTTGAT (site GAGCTGACTAT)” are within 0.2 log units of each other in “recombinant UMI read abundance (log10)” value: 0.0205 for the first, 0.034 for the second.

Going from “GAGCTAACATGGACCGGTTTTCCCGGTAATCCGTATTTGAT (site GAGCTTACTAT)” to “GAGCTCACATGGACCGGTTTTCCCGGTAATCCGTATTTGCT (site GAGCTCACTAA)”, the “recombinant UMI read abundance (log10)” value rises from 0.00927 to 1.28.

In the case of “GAGCTCACATGGACCGGTTTTCCCGGTAATCCGTATTTGCT (site GAGCTCACTAC)”, the “recombinant UMI read abundance (log10)” value is reported as 0.00315.
